Experimental data published in paper PMC11928319 (Nature Plants, 2025).
Where no end group is shown, it is not given here.

Test system: filter-sterile supernatant of D. japonica MF79
Assay: Peptide quantification by mass spectrometry after incubation in cell-free supernatant of D. japonica MF79
Type: in vitro ADME, Dyella japonica MF79
Conditions: for peptide degradation in culture supernatant of wild-type D. japonica MF79 / peptide depletion in supernatant of the D. japonica MF79 gspD mutant: 1 µM peptide, 1 h, filter-sterile supernatant, XVM2 (OD600 = 0.6), LC-MS; for Log10(total_area_MS1) / percent_rel_axenic: incubation 1h; for Log10(total_area_MS1): MS1 precursor area; for percent_rel_axenic: peptide relative to axenic
Protocol: Elicitors were also supplemented into the medium prior to solidification at a final concentration of 1 µM. The flg22 ([…]) and AtPep1 ([…]) peptides were synthesized by EZbiolab. elf18^R179 (Ac-[…]) and elf18 (Ac-[…]) were synthesized by GenScript and EZbiolab, respectively. […] Bacteria were pelleted by centrifugation (11,600 g, 2 min), and the supernatant was sterile-filtered using filter units with MF-Millipore membrane (0.22 µm; Millex). The supernatant was incubated in boiling water for 30 min for heat treatment. Then, 25 ml of 1× MS with 20 g l^−1 Bacto Agar was mixed with 25 ml of supernatant prior to medium solidification and poured into square petri dishes. Sterilized seeds were placed on solidified agar in square petri dishes and vertically incubated for 14 days.
Bacterial supernatants were prepared as described in ‘Agar-based cultivation of axenic plants and co-cultivation with bacteria, bacterial supernatants and elicitors’. Here, additionally, the peptides dRGF1 (DYSNPGHHP-Hyp-RHN) and PSY1 (D-Y(SO3H)-[…]-Hyp-Hyp-S) synthesized by Scilight Peptide were incubated for 1 h with 1 µM of peptides in a plant cultivation light chamber (day-light condition; see ‘Plant cultivation conditions’), and the samples were frozen at −20 °C until further processing. For the investigation of AtPep1 degradation, the AtPep1 peptide was first modified by acetylation (six to seven times). To this end, 100-µl aliquots of peptides were treated with 10 µl of NHS acetate solution (1 M NHS acetate in 50% ACN/PBS) and incubated for 30 min with shaking. The reaction was quenched by the addition of 100 µl of 100 mM Tris-HCl (pH 8.5) and incubated for 10 min. For comparison of the non-acetylated peptides with the above-described modified AtPep1 peptides, aliquots of the non-acetylated peptides were processed as described above, but without the modifying NHS reaction. To this end, 100-µl aliquots of the sample were mixed with 100 µl of PBS buffer (137 mM NaCl, 2.7 mM KCl, 10 mM Na2HPO4, 1.8 mM KH2PO4; pH 7.4). The samples were then further diluted with 100 µl of 100 mM Tris-HCl (pH 8.5) and incubated for 10 min. All samples were acidified with 5 µl of TFA and desalted using StageTips with C18 Empore disk membranes (3M)[109]. The samples were dried in a vacuum evaporator and dissolved in 10 µl of 2% ACN (0.1% TFA for analysis).
The samples were analysed using an EASY-nLC 1200 (Thermo Fisher) coupled to a QExactive Plus mass spectrometer (Thermo Fisher). Peptides were separated on 16-cm frit-less silica emitters (New Objective, 75 µm inner diameter), packed in-house with reversed-phase ReproSil-Pur C18 AQ 1.9 µm resin (Dr. Maisch). Peptides were loaded on the column and eluted for 50 min using a segmented linear gradient of 5% to 95% solvent B (0 min, 5% B; 0–5 min, 15% B; 5–35 min, 50% B; 35–45 min, 95% B; 45–50 min, 95% B) (solvent A: 0% ACN, 0.1% FA; solvent B: 80% ACN, 0.1% FA) at a flow rate of 300 nl min^−1. Mass spectra were acquired in data-dependent acquisition mode with a TOP10 method. Mass spectrometry spectra were acquired in the Orbitrap analyser with a mass range of 300–1,500 m/z at a resolution of 70,000 full width at half maximum (FWHM) and a target value of 3 × 10^6 ions. Precursors were selected with an isolation window of 1.3 m/z. Higher-energy collision dissociation (HCD) fragmentation was performed at a normalized collision energy of 25. Tandem mass spectrometry (MS/MS) spectra were acquired with a target value of 5 × 10^5 ions at a resolution of 17,500 FWHM, a maximum injection time of 85 ms and a fixed first mass of 100 m/z. Peptides with a charge of 1 or greater than 6 or with an unassigned charge state were excluded from fragmentation for MS/MS; dynamic exclusion for 20 s prevented repeated selection of precursors. The raw data were analysed on the MS1 level using Skyline (https://skyline.ms)[110], and the results were filtered for the respective intact peptides, or the acetylated version in the case of AtPep1. […]

[1] = MF79 gspD mutant supernatant, XVM2 medium, replicate 1
[2] = MF79 gspD mutant supernatant, XVM2 medium, replicate 2
[3] = MF79 gspD mutant supernatant, XVM2 medium, replicate 3
[4] = MF79 supernatant, XVM2 medium, replicate 1
[5] = MF79 supernatant, XVM2 medium, replicate 2
[6] = MF79 supernatant, XVM2 medium, replicate 3
[7] = axenic XVM2 medium control, replicate 2
[8] = axenic XVM2 medium control, replicate 3
[9] = axenic XVM2 medium control, replicate 1

ATKVKAKQRGKEKVSSGRPGQHN [AtPep1]
peptide degradation in culture supernatant of wild-type D. japonica MF79: similarly effective in degrading
peptide depletion in supernatant of the D. japonica MF79 gspD mutant: depleted
Log10(total_area_MS1) [1]: 0
Log10(total_area_MS1) [2]: 0
Log10(total_area_MS1) [3]: 0
percent_rel_axenic [1]: 0%
percent_rel_axenic [2]: 0%
percent_rel_axenic [3]: 0%
Log10(total_area_MS1) [4]: 7.596
Log10(total_area_MS1) [5]: 7.38
Log10(total_area_MS1) [6]: 6.998
percent_rel_axenic [4]: 0.3481%
percent_rel_axenic [5]: 0.2117%
percent_rel_axenic [6]: 0.0878%
Log10(total_area_MS1) [7]: 10.0991
Log10(total_area_MS1) [8]: 9.961
percent_rel_axenic [7]: 110.888%
percent_rel_axenic [8]: 80.7256%

Ac-SKEKFERTKPHVNVGTIG [elf18]
peptide degradation in culture supernatant of wild-type D. japonica MF79: similarly effective in degrading
peptide depletion in supernatant of the D. japonica MF79 gspD mutant: depleted
Log10(total_area_MS1) [1]: 7.363
Log10(total_area_MS1) [2]: 7.327
Log10(total_area_MS1) [3]: 7.195
percent_rel_axenic [1]: 0.1126%
percent_rel_axenic [2]: 0.1036%
percent_rel_axenic [3]: 0.0764%
Log10(total_area_MS1) [4]: 8.052
Log10(total_area_MS1) [5]: 7.627
Log10(total_area_MS1) [6]: 7.56
percent_rel_axenic [4]: 0.5496%
percent_rel_axenic [5]: 0.2067%
percent_rel_axenic [6]: 0.1772%
Log10(total_area_MS1) [9]: 10.4148
Log10(total_area_MS1) [7]: 10.2259
Log10(total_area_MS1) [8]: 10.2716
percent_rel_axenic [9]: 126.772%
percent_rel_axenic [7]: 82.063%
percent_rel_axenic [8]: 91.1647%

QRLSTGSRINSAKDDAAGLQIA [flg22]
peptide degradation in culture supernatant of wild-type D. japonica MF79: similarly effective in degrading
peptide depletion in supernatant of the D. japonica MF79 gspD mutant: depleted
Log10(total_area_MS1) [1]: 0
Log10(total_area_MS1) [2]: 0
Log10(total_area_MS1) [3]: 0
percent_rel_axenic [1]: 0%
percent_rel_axenic [2]: 0%
percent_rel_axenic [3]: 0%
Log10(total_area_MS1) [4]: 0
Log10(total_area_MS1) [5]: 0
Log10(total_area_MS1) [6]: 0
percent_rel_axenic [4]: 0%
percent_rel_axenic [5]: 0%
percent_rel_axenic [6]: 0%
Log10(total_area_MS1) [9]: 7.6416
Log10(total_area_MS1) [7]: 7.393
Log10(total_area_MS1) [8]: 7.844
percent_rel_axenic [9]: 94.9639%
percent_rel_axenic [7]: 53.5357%
percent_rel_axenic [8]: 151.5%
